Laboratory results published in PubChem BioAssay (NCI).
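Step 1: Grow cells in 96-well plates. Step 2: Expose to compound for 48 hours at 5 concentrations. Step 3: Interpolate endpoints linearly; if unreached, use highest concentration. The concentration for full growth arrest is given as TGI.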

Assays:
Assay in all cases: NCI anticancer screen, dose series, 48 h
HT29 colon = system: HT29 colon
MDA-N = system: MDA-N
SR leukemia = system: SR leukemia
COLO 205 colon = system: COLO 205 colon
U251 CNS = system: U251 CNS
IGROV1 ovarian = system: IGROV1 ovarian
EKVX NSCLC = system: EKVX NSCLC
NCI/ADR-RES ovarian = system: NCI/ADR-RES ovarian
OVCAR-8 ovarian = system: OVCAR-8 ovarian
MDA-MB-231 breast = system: MDA-MB-231 breast

Row | SMILES | TGI (HT29 colon) [µM] | TGI (MDA-N) [µM] | TGI (SR leukemia) [µM] | TGI (COLO 205 colon) [µM] | TGI (U251 CNS) [µM] | TGI (IGROV1 ovarian) [µM] | TGI (EKVX NSCLC) [µM] | TGI (NCI/ADR-RES ovarian) [µM] | TGI (OVCAR-8 ovarian) [µM] | TGI (MDA-MB-231 breast) [µM]
1 | Cc1nn(C(=O)c2ccc(Cl)cc2)c2c1C(c1ccco1)SC(N)=N2 (stereo not given) | > 10 | > 10 | > 10 | > 10 | > 10 | > 10 | > 10 | > 10 | > 10 | > 10
2 | COc1cc(C2c3cc4c(cc3OC(N3CCOCC3)C2C)OCO4)cc(OC)c1OC(C)=O (stereo not given) | 57.9 | 4.94 | > 72 | 52 | > 80.9 | > 100 | > 100 | 30.8 | > 100 | 99.2
3 | Cc1csc2n(C)c(=O)c3ccccc3[n+]12 | > 100 | > 100 | > 100 | > 100 | > 100 | > 100 | > 100 | > 100 | > 100 | > 100
4 | Cc1ccc(Nc2nc(NS(=O)(=O)c3cc(C)c(Cl)cc3S)n[nH]2)cc1 | > 100 | > 100 | > 100 | > 100 | > 100 | > 100 | > 100 | > 100 | > 100 | > 100
5 | C=C1[C@H](OCC(C)C)[C@@H](OC(=O)C(C)CC)[C@@H](O)C(C)(C)/C=C/[C@H](C)C(=O)[C@@]2(O)C[C@H](C)[C@H](O)[C@@H]2[C@H]1OC(=O)C(C)CC (stereo not given in full) | 9.87 | > 20 | > 10.5 | > 9.67 | > 20 | > 20 | > 20 | > 20 | > 20 | > 12.5
6 | O=C1C(CN2CCCC2)CCCC1CN1CCCC1 (stereo not given) | 33.6 | 19.2 | 5.66 | 3.07 | 41.3 | 32.4 | 13.7 | 18.9 | 10.5 | 31.1
7 | CCOC(=O)O/N=C1/C(c2c(O)[nH]c3ccccc23)=Nc2ccccc21 | 46.7 | 19.3 | > 100 | 28.8 | > 100 | 30.9 | 13.5 | 78.6 | 30.8 | 63
8 | Cc1nc(N)nc(N)c1N1CCN(Cc2ccccc2)CC1 | > 100 | > 100 | > 100 | > 100 | > 100 | > 100 | > 100 | > 92.6 | > 100 | > 100
9 | COc1cccc(/C=N/n2c(Cc3ccc(Cl)cc3)n[nH]c2=O)c1 | 34 | > 100 | > 100 | > 100 | 55.2 | > 100 | > 84 | > 88.7 | 36.7 | 48.2
10 | Cc1ccc(CC(=O)Nc2ccc(NC(=O)CNC(=O)/C=C/c3ccc(-c4ccccc4)cc3)cc2C(=O)c2ccccc2)cc1 | 2.99 | 20.9 | 4.95 | 32 | 8.67 | 21.7 | 15.8 | 29.8 | 3.27 | 9.21
11 | CC1CN=C(N(C)C(=O)Nc2ccc(Cl)c(Cl)c2)S1 (stereo not given) | > 100 | > 100 | > 100 | > 100 | > 100 | > 100 | > 100 | 73.2 | > 100 | > 100
12 | Cc1nc2ccccc2cc1C[N+]12CN3CN(CN(C3)C1)C2 | 60.8 | 65.6 | > 100 | 28.8 | 28.2 | > 100 | 50 | 56.3 | > 100 | 43.1
13 | CCOC(=O)C12C(=O)CCN1CCc1ccccc1C2C (stereo not given) | > 100 | > 100 | > 100 | > 100 | > 100 | > 100 | > 100 | > 100 | > 100 | > 100
14 | CCOC(=O)c1ccc(NC(NC(=O)CC)(C(F)(F)F)C(F)(F)F)cc1 | > 100 | > 100 | > 100 | > 100 | > 100 | > 100 | > 100 | > 100 | > 100 | > 100
15 | S=C1CSc2c(cnc3ccccc23)N1 | > 100 | > 100 | > 100 | > 100 | > 100 | > 100 | > 100 | > 100 | > 100 | > 100
16 | CC(C)(C)OC(=O)N1C/C=C\C(=O)C2(OCCO2)c2ccccc21 | 42 | 48.3 | 77.9 | 35.7 | > 100 | 33.4 | > 100 | > 100 | 86.6 | 40.8

Row | SMILES | TGI (HT29 colon) [µM] | TGI (MDA-N) [µM] | TGI (SR leukemia) [µM] | TGI (COLO 205 colon) [µM] | TGI (U251 CNS) [µM] | TGI (IGROV1 ovarian) [µM] | TGI (EKVX NSCLC) [µM] | TGI (NCI/ADR-RES ovarian) [µM] | TGI (OVCAR-8 ovarian) [µM] | TGI (MDA-MB-231 breast) [µM]
17 | CCOC(=O)C1=CN(C(=O)c2ccccc2)CCC1Cc1ccccc1 (stereo not given) | 35.1 | 44.4 | 37.5 | 51.9 | 51.9 | > 100 | > 100 | 93 | 88.4 | 64.9
18 | Cn1c(=O)c2[nH]c(-n3nc(-c4ccccc4)cc3N)nc2n(C)c1=O | > 100 | > 100 | > 100 | 88.7 | > 100 | 37.1 | > 100 | 14.2 | 97.7 | > 100
19 | c1csc(-c2nnc(C34CC5CC(CC(C5)C3)C4)o2)c1 | 36.3 | > 100 | 66.6 | 31.2 | > 100 | > 100 | > 100 | 57 | 98.4 | 45.7
20 | OCCNc1nc2c(N3CCCC3)nc(N3CCNCC3)nc2nc1NCc1ccccc1 | 21.7 | 24.7 | 32.7 | 24.9 | 23.3 | 25.5 | 26.9 | > 100 | 30.5 | 29.4
21 | C=CCc1cccc2cc(C(=O)Nc3nc(C45CC6CC(CC(C6)C4)C5)cs3)c(=O)oc12 | > 100 | > 100 | > 100 | 58.9 | 41.9 | 94.5 | > 100 | > 100 | > 100 | 62.1
22 | Cc1ccnc2sc3ccccc3c(=O)c12 | 93.3 | > 100 | > 100 | > 100 | > 100 | > 100 | 94.4 | > 100 | > 100 | > 100
23 | CSc1nc(=O)c(C#N)c(-c2ccccc2)n1C1OC(COC(C)=O)C(OC(C)=O)C(OC(C)=O)C1OC(C)=O (stereo not given) | > 100 | > 100 | > 100 | > 100 | > 100 | > 100 | > 100 | > 100 | > 100 | > 100
24 | O=C1C=C(NCCc2cc(Br)c(O)c(Br)c2)C(=O)c2[nH]cnc21 | 80.8 | 33.6 | > 100 | > 100 | > 100 | > 100 | > 100 | > 100 | > 100 | 67.9
25 | Cc1ccc(NC(=O)CC(=O)N2N=C(c3ccccc3)C(N=Nc3ccc(S(=O)(=O)CCOS(=O)(=O)O)cc3)C2=O)cc1 (stereo not given) | > 100 | > 100 | > 100 | > 100 | > 100 | > 100 | > 100 | > 100 | > 100 | > 100
26 | CC(C)C(/C=C/c1ccccc1)=N\NC(=S)NN | > 100 | > 31.6 | > 100 | > 100 | > 100 | > 100 | > 100 | > 100 | > 100 | > 100
27 | CN(/N=C/c1ccc(Cl)c(Cl)c1)C1=NCCN1 | > 100 | 31.9 | 86.7 | 38.9 | 59.8 | > 100 | > 100 | > 100 | > 100 | 77.2
28 | CC(C)(CN1CCCCC1)C(=O)/C=C/c1c(Cl)cccc1Cl | 2.89 | 2.38 | > 100 | 3.05 | 2.8 | 1.13 | 3.24 | 5.09 | 9.21 | 2.15
29 | O=C(c1ccccc1)n1[nH]c(=O)n(-c2ccc(Cl)cc2)c1=O | > 100 | > 100 | > 100 | > 100 | > 100 | > 100 | > 100 | > 100 | > 100 | > 100
30 | COC1=CCC2=C(CCN(C(=O)C3CCC3)C2Cc2ccc(OC)c(O)c2)C1 (stereo not given) | 43.8 | 9.04 | > 100 | 32.1 | > 100 | > 100 | 88.9 | 41.4 | > 100 | > 100
31 | O=[N+]([O-])c1ccc(Cl)cc1N/N=C/c1cccs1 | > 100 | > 100 | > 100 | > 100 | > 100 | > 100 | > 100 | > 100 | > 100 | > 100
32 | C/C(NC(=O)c1ccccc1)=C(/C(=O)c1ccccc1)[C@@H]1OC(C)(C)O[C@@H]1[C@H]1COC(C)(C)O1 | 86.3 | 39.1 | 38.5 | 48.9 | > 100 | 42 | 48.4 | > 100 | > 100 | > 100
